The text below walks through data of publication PMC5742583, “A Functional Analysis on the Interspecies Interaction between Mouse LFA-1 and Human Intercellular Adhesion Molecule-1 at the Cell Level” (Frontiers in Immunology, 2017).

Assay [1] has as its system mouse B cells (ICAM-1/LFA-1 interaction). Kind of assay: Homotypic B cell aggregation assay. The settings on record: overnight 37°C, clumping index 1-10. The format is cell-based. The method, then: To obtain these cells, mice were sacrificed by cervical dislocation, the spleens were removed, and splenocytes were isolated and resuspended in RPMI 10% FBS at a final concentration of 10^6 cells/ml. Cells were treated with 10 µg/ml PHA and 1 µg/ml ionomycin to activate LFA-1 and incubated at 37°C 5% CO2 overnight in flat bottom 96-well plates (10^5 cells) in the presence of peptides from LFA-1 and c-Myc (control) 250 µM, D1D2, D1D2Fc, and human IgG1 10 µg, EGTA 1 mM and lovastatin 100 µM. A qualitative aggregation assay was carried out as described ([36], [41]) with a slight modification. Briefly, positive control stimulated cell samples were arbitrarily assigned a clumping index of 10 and lovastatin samples an index of 1. Test samples were ranked from 1 to 10 based upon degree of clumping relative to stimulated and lovastatin-treated samples. Results were verified by a blind independent rating performed by a second observer.
Fresh mouse B cells were obtained from splenocytes and stimulated with PHA and ionomycin to induce homotypic adhesion. The results were quantified by establishing a clumping index that represents the degree of cell aggregation, which reflects the inhibition efficiency (Figure 3B). Cell aggregation was ranked by a clumping index from 1 to 10 based on the degree of aggregation in comparison with the stimulated cells (positive control, clumping index = 10).
Figure 3 Effect of human (ICAM-1) on the aggregation of mouse spleen cells. (A) Splenocytes isolated from mice were non treated (a) or activated with PHA (b–i) as described in Section “Experimental Procedures” and further incubated overnight with (b) medium; (c) IgG1; (d) c-Myc peptide; (e) EGTA; (f) lovastatin; (g) D1D2; (h) D1D2Fc; (i) mouse LFA-1 peptide CD11a235–259. Images were taken with an optical microscope (original magnification, 10×). Representative images from two independent experiments with similar results are shown. (B) The graph represents the rate of agglutination depending on the inhibitory effect on ICAM-1/LFA-1 interaction. Cells stimulated with PHA and ionomycin, which served as a positive control, were arbitrarily assigned agglutination index 10, which represents a percentage of aggregation between 90 and 100%. Homotypic aggregation was classified from 1 to 10 depending on the degree of aggregation relative to cells stimulated. The result was verified by a second independent observer. Values are presented as mean ± SEM of two separate experiments performed by duplicate. Statistical analysis was performed using two-way analysis of variance with Bonferroni’s posttest comparing with c-Myc peptide control. *p < 0.05; ***p < 0.001.

The subject of assay [2] is ICAM-1/LFA-1 interaction. Particulars: cited from earlier work. The method, then:
Human and mouse LFA-1-derived peptides (human: CD11a237–261; mouse: CD11a235–259) were purchased from GenScript (Piscataway, USA) without any modification. […] Besides, incubation cells with a mouse antiCD1 ...

For assay [3], the system named is VLA-4. The settings on record: ref [42], [43]; cited from earlier work. The text has this: (§1) In contrast, cell aggregates were clearly visible in cultures after stimulation (Figure 3A, b). […] Macrophage phenotype was confirmed by testing surface antigens by flow cytometry. Monocyte-derived macrophages expressed higher levels of HLA-DR and CD14 than undifferentiated monocytes ([51]). In addition, expression of CD54 (ICAM-1) was diminished in comparison with freshly isolated monocytes (Figure 6B). […] As shown ...

Assay [4] concerns Mac-1. Particulars: ref [42], [43]; cited from earlier work.
Description: as §1

Assay [5] addresses T1, D1D2Fc (Homo sapiens, UniProt P05362).
T1 construct: The synthetic first two domains of ICAM-1 alone (D1D2) or linked with human IgG1 Fc region (D1D2Fc) were expressed in Escherichia coli; made in house; host or cells: Escherichia coli
The settings on record: peptide derived from human LFA-1, observed previously, ref [34], cited from earlier work. The text has this:
In a previous work, we have shown that purified human recombinant ICAM-1 was able to interact with peptides derived from human LFA-1 ([34]). […] The complex formation was net exothermic as would be expected for a reaction in which specific intermolecular interactions are established. Besides, if there were no interaction, there would not be any signal. This value was obtained by fitting to the binding isotherm a 1:n interaction model, which assumes a single type of binding sites.

In assay [6] the test system is K562 cells killed by human NK cells (ICAM-1/LFA-1). Kind of assay: NK cell-mediated cytotoxicity on K562. The class given is cell-based. Particulars: peptide 250 µM, preincubation 45 min 37°C; effector:target 3:1, 4 h; annexin-V/7-AAD by FACS; vs c-Myc control; two experiments by duplicate. How it is done:
The effect of human and mouse peptides derived from LFA-1 on ICAM-1/LFA-1 dependent cell–cell contact was analyzed by performing a cell cytotoxicity assay using human primary NK cells and the NK cell sensitive human leukemia K562. Primary activated human NK cells were generated by culturing PBMCs with mitomycin C inactivated R69 cells for 5 days and enriched by MACS using anti-CD56 antibodies as previously described ([39]). Cell cytotoxicity induced by NK cells on K562 was analyzed by flow cytometry as previously described ([39]). Briefly, K562 cells were preincubated with medium alone, in the presence of 250 µM of human and mouse peptides from LFA-1 or D1D2 (15 µg) for 45 min at 37°C. Then, NK cells were added at 3:1 effector:target cell ratio and incubated for 4 h at 37°C, 5% CO2. Subsequently, phosphatidylserine exposure and 7-AAD uptake were analyzed by FACS using the annexin-V/7-AAD kit from Immunostep. As a control, the cells were incubated alone with the inhibitors to evaluate their possible toxicity, which was not significant in any case.
Figure 4 Inhibition of natural killer (NK) cell-mediated cytotoxicity by human intercellular adhesion molecule-1. […] Cell death was analyzed by measuring translocation of PS by flow cytometry in the negative population for CFSE as described in experimental procedures. […]
(Flow cytometry measures light scatter and fluorescence of single cells or particles in a stream.)

Assay [7] deals with human monocytes. In words: Human monocyte adhesion to plastic (MTT). Particulars: human D1D2 and D1D2Fc, different concentrations, 37°C overnight, three experiments by duplicate. The format is cell-based. How it is done: (§2) Monocytes were isolated from human peripheral blood mononuclear cells (PBMCs), obtained from healthy donors (Blood and Tissue Bank of Aragon; approved by the CEICA, number: C.I.PI11/006) by density gradient centrifugation using Ficoll-Paque (GE healthcare). PBMCs were resuspended at a concentration of 2.5 × 10^6 cells/ml in RPMI medium supplemented with 1% heat-inactivated human AB serum (Sigma). Cells were cultured in a Petri dish for 2 h at 37°C 5% CO2. […]
(§3) Freshly isolated monocytes or differentiated macrophages were washed twice with PBS and incubated with trypsin (PAN Biotech) for 30 min at 37°C 5% CO2. […] Next day, every well was washed twice with PBS, complete RPMI medium was added and the number or adherent remaining cells was quantified by a MTT colorimetric test ([38]). […]
(§4) Figure 6 LFA-1 is involved in human macrophage adhesion. […] (B) Macrophage phenotype was analyzed by flow cytometry testing the expression of HL-DR, CD14, CD54, and CD11a. […] Subsequently, every well was washed twice with PBS to remove non-adherent cells and quantification of cell adhesion was carried out by MTT as described in Section “Experimental Procedures.” Values are presented as mean ± SEM of three independent experiments performed by duplicate. […]

The test system of assay [8] is human macrophages. In words: Human macrophage adhesion to plastic (MTT). The format is cell-based. Particulars: human D1D2 and D1D2Fc, different concentrations, 37°C overnight, three experiments by duplicate. The method, then:
as §2, §3, §4

Assay [9] has as its system gp33-pulsed EL4 cells killed by mouse Tc cells (ICAM-1/LFA-1). Kind of assay: CD8+ T cell-mediated cytotoxicity on EL4. The class given is cell-based. The settings on record: ICAM-1 proteins, several (increasing) amounts, preincubation 45 min 37°C; effector:target 10:1, 4 h; annexin-V/7-AAD by FACS; three experiments by duplicate.
The target of assay [10] is human ICAM-1 first two domains linked with human IgG1 Fc region (D1D2Fc) (human). Kind of assay: ITC; 150 µM peptide injected (28 injections of 10 µl) into 12 µM D1D2Fc in the cell, PBS, 25°C, VP-ITC; fitted with a 1:n interaction model with a single type of binding sites.

Where two headings read alike, the source gives them in different places.

For orientation: Kd means the free concentration of one partner at which half of the binding sites on the other are occupied at equilibrium, for simple one-to-one binding. A low value points to higher affinity.

T1 sequence (P05362 with tags, fused parts or gaps limits assumed): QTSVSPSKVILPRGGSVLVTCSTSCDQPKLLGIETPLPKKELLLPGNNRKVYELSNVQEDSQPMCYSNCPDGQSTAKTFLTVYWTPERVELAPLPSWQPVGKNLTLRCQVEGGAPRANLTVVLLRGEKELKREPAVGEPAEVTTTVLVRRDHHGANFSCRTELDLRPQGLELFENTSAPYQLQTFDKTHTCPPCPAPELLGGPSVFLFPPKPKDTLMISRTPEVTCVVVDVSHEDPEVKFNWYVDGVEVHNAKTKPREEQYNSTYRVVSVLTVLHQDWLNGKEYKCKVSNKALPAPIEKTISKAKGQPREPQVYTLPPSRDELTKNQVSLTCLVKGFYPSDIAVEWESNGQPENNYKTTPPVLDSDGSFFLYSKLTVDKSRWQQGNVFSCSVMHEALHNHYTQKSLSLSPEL

As for `O=C(O)CN(CCOCCOCCN(CC(=O)O)CC(=O)O)CC(=O)O` [EGTA, reference compound], the “inhibition of B cell aggregation” value in assay [1] (EGTA 1 mM, splenocytes activated with PHA and ionomycin) is listed as “inhibit completely the aggregation”. The “specific block of ICAM-1/LFA-1 interaction” value in assay [2] (ref [42], [43]) is reported as “specifically block ICAM-1/LFA-1 interaction”. In addition, the “effect on VLA-4” value in [3] is “without affecting”. Besides, the “effect on Mac-1” value in assay [4] was “without affecting”.

As for “ITDGEATDSGNIDAAKDIIRYIIGI [CD11a237–261, human LFA-1-derived peptide, purchased from GenScript without any modification]”, the “ability to block ICAM-1/LFA-1 interaction” value in assay [2] (ref [36]) is on record as “ability to block ICAM-1/LFA-1 interaction”. Moreover, the “affinity for human ICAM-1 (D1D2Fc), in words” value in assay [5] was “similar”; in assay [5] (listed as peptide of human LFA-1), “highest affinity”. In addition, the “inhibition of NK cell-mediated cell death of K562” value in assay [6] is on record as “blocked NK cell-mediated cell death”.

B1: Human ICAM-1: human ICAM-1 (D1D2Fc and D1D2) in this paper's tests; purified human ICAM-1 in ref [29] (protein, UniProt P05362 28-532, looked up)
Intercellular adhesion …: QTSVSPSKVILPRGGSVLVTCSTSCDQPKLLGIETPLPKKELLLPGNNRKVYELSNVQEDSQPMCYSNCPDGQSTAKTFLTVYWTPERVELAPLPSWQPVGKNLTLRCQVEGGAPRANLTVVLLRGEKELKREPAVGEPAEVTTTVLVRRDHHGANFSCRTELDLRPQGLELFENTSAPYQLQTFVLPATPPQLVSPRVLEVDTQGTVVCSLDGLFPVSEAQVHLALGDQRLNPTVTYGNDSFSAKASVSVTAEDEGTQRLTCAVILGNQSQETLQTVTIYSFPAPNVILTKPEVSEGTEVTVKCEAHPRAKVTLNGVPAQPLGPRAQLLLKATPEDNGRSFSCSATLEVAGQLIHKNQTRELRVLYGPRLDERDCPGNWTWPENSQQTPMCQAWGNPLPELKCLKDGTFPLPIGESVTVTRDLEGTYLCRARSTQGEVTRKVTVNVLSPRYEIVIITVVAAAVIMGTAGLSTYLYNRQRKIKKYRLQQAQKGTPMKPNTQATPP
Turning to B1, the “inhibition of B cell aggregation” value in assay [1] (protein 10 µg, splenocytes activated with PHA 10 µg/ml and ionomycin 1 µg/ml, two experiments by duplicate) is listed as “significantly inhibited adhesion”. In [7], the “inhibition of adhesion of human monocytes” value was “completely inhibited”. Further, the “inhibition of adhesion of human macrophages” value in assay [8] was “completely inhibited”. Further, in assay [9], the “inhibition of Tc cell-mediated cell death of EL4” value is given as “completely blocked cell death”.

As for ITDGEASDKGNISAAHDITRYIIGI [mouse LFA-1-derived peptide CD11a(235-259)], the Kd in [10] worked out at 70 nM.
